Experimental findings from ChEMBL document CHEMBL5034031, “Discovery of Next-Generation Tropomyosin Receptor Kinase Inhibitors for Combating Multiple Resistance Associated with Protein Mutation” (J Med Chem, 2021) are described below.

Structures are written as SMILES.

Data set [1] can be described thus: Metabolic stability in human liver microsomes assessed as half life at 1 uM measured upto 90 mins in presence of NADPH regenerating system by LC-MS/MS analysis. The data set is classed as ADME, Microsome. A general note: Microsomes from liver hold many membrane-bound enzymes, among them those of drug oxidation.
In data set [2] the test system is BaF3. The data set is described as follows: animal or person. The following applies: Mus musculus, BaF3, po; read-out: TGI. The data set is classed as functional.
Data set [3] has as its system BaF3. The data set is described as follows: Antiproliferative activity against mouse BaF3 cells transfected with ETV6-wild type TRKC assessed as cell viability incubated for 72 hrs by CCK8 assay. The class given is functional, cell-based. The following applies: BaF3, 72 h.
Data set [4] has as its system BaF3. Briefly: Antiproliferative activity against mouse BaF3 cells transfected with ETV6-wild type TRKA assessed as cell viability incubated for 72 hrs by CCK8 assay. The class given is functional, cell-based. Particulars: BaF3, 72 h. For orientation: Tetrazolium dyes change colour on reduction, which living cells bring about.
In data set [5] the test system is BaF3. The data set is classed as functional, cell-based. Particulars: Mus musculus, BaF3, 72 h.
Data set [6] relates to BaF3. The data set is described as follows: animal or person. The following applies: Mus musculus, BaF3, po; read-out: TGI. The class given is functional. This is another data set of the same source.
Data set [7] deals with BaF3. The data set is described as follows: Antiproliferative activity against mouse BaF3 cells transfected with ETV6-wild type TRKB assessed as cell viability incubated for 72 hrs by CCK8 assay. The class given is functional, cell-based. The following applies: BaF3, 72 h.

For orientation: half-life means the time in which the quantity being followed falls by half. On to `C[C@@H](Nc1ccn2ncc(-c3cnn(C)c3)c2n1)c1cc(F)ccc1OCC(F)F`, for which the half-life at 1 µM in data set [1] stood at 32.4 min.
For the molecule `O=C(Nc1cnn2ccc(N3CCC[C@@H]3c3cc(F)ccc3F)nc12)N1CC[C@H](O)C1` [LAROTRECTINIB], the inhibition in vivo at 15 mg/kg in the data set on BaF3 [2] amounted to 70%. Further, the half-life at 1 µM in data set [1] stood at 365 min.
As a reminder, the IC50 is the concentration that inhibits the measured activity by half. With `C[C@@H]1CCc2ncc(F)cc2[C@H]2CCCN2c2ccn3ncc(c3n2)C(=O)N1` [SELITRECTINIB], the half-maximal inhibitory concentration (IC50) in the data set on BaF3 [3] worked out at 1.6 nM; in the data set with BaF3 [4], 1.1 nM; in the data set on BaF3 [5], 72.6 nM; in the data set with BaF3 [7], 1.4 nM. Further, the inhibition in vivo at 100 mg/kg in the data set on BaF3 [6] turned out to be 64%.
With `Cn1cc(-c2cnn3ccc(N4CCC[C@@H]4c4cc(F)ccc4OCC(F)F)nc23)cn1`, the half-life at 1 µM in data set [1] turned out to be 8.3 min.
On the same count and under the same terms, with `Cn1cc(-c2cnn3ccc(N4CCC[C@@H]4c4cc(F)ccc4F)nc23)cn1` the figure was 3 min.
